Source: patent US8802597B2, “Herbicidal pyrimidines” (E I du Pont de Nemours and Company, priority 2003, dated 2014)
Read-outs that look alike come from different tables or passages of the source.

Legend:
Format in all cases: in vivo
[1] = system: blackgrass (Alopecurus myosuroides); assay: Test B postemergence; conditions: Alopecurus myosuroides, post-emergence, scale 0 to 100 (0 no effect, 100 complete control), read-out: Blackgrass plant response rating
Outline: (§1)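 Under greenhouse conditions, seeded pots and young plants (1- to 4-leaf, 2 to 18 cm) were treated at the same time with test chemicals in a non-phytotoxic solvent mixture containing surfactant. Response was assessed visually after 13 to 15 days, from 0 (no effect) to 100 (complete control).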

wild oat (Avena fatua) = assay: Test B postemergence; conditions: Avena fatua, post-emergence, scale 0 to 100 (0 no effect, 100 complete control), read-out: Oat, Wild plant response rating
Outline: as §1

[2] = system: crabgrass (Digitaria sanguinalis); assay: Test B pre/postemergence; conditions: Digitaria sanguinalis; for pest or weed control at 62 g/ha: 62 g ai/ha; for pest or weed control at 125 g/ha: 125 g ai/ha
Outline: as §1

[3] = system: pigweed (Amaranthus retroflexus); assay: Test B pre/postemergence; conditions: Amaranthus retroflexus; for pest or weed control at 62 g/ha: 62 g ai/ha; for pest or weed control at 125 g/ha: 125 g ai/ha
Outline: as §1

[4] = system: barnyardgrass (Echinochloa crus-galli); assay: Test B pre/postemergence; conditions: Echinochloa crus-galli, scale 0 to 100 (0 no effect, 100 complete control); for pest or weed control at 62 g/ha: 62 g ai/ha; for pest or weed control at 125 g/ha: 125 g ai/ha
Outline: as §1

[5] = system: morningglory (Ipomoea coccinea); assay: Test B pre/postemergence; conditions: Ipomoea; for pest or weed control at 62 g/ha: 62 g ai/ha; for pest or weed control at 125 g/ha: 125 g ai/ha
Outline: as §1

[6] = system: wheat (Triticum aestivum); assay: Test B pre/postemergence; conditions: Triticum aestivum, scale 0 to 100 (0 no effect, 100 complete control); for plant injury at 62 g/ha: 62 g ai/ha; for plant injury at 125 g/ha: 125 g ai/ha
Outline: as §1

[7] = system: giant foxtail (Setaria faberii); assay: Test B pre/postemergence; conditions: Setaria faberi; for pest or weed control at 125 g/ha: 125 g ai/ha; for pest or weed control at 62 g/ha: 62 g ai/ha
Outline: as §1

[8] = system: cocklebur (Xanthium strumarium); assay: Test B pre/postemergence; conditions: Xanthium strumarium; for pest or weed control at 62 g/ha: 62 g ai/ha; for pest or weed control at 125 g/ha: 125 g ai/ha
Outline: as §1

[9] = system: lambsquarters (Chenopodium album); assay: Test B pre/postemergence; conditions: Chenopodium album; for pest or weed control at 62 g/ha: 62 g ai/ha; for pest or weed control at 125 g/ha: 125 g ai/ha
Outline: as §1

[10] = system: Surinam grass (Brachiaria decumbens); assay: Test B pre/postemergence; conditions: Urochloa decumbens; for pest or weed control at 125 g/ha: 125 g ai/ha; for pest or weed control at 62 g/ha: 62 g ai/ha
Outline: as §1

corn (Zea mays) = assay: Test B pre/postemergence; conditions: Zea mays
Outline: as §1

[11] = system: velvetleaf (Abutilon theophrasti); assay: Test B pre/postemergence; conditions: Abutilon theophrasti; for pest or weed control at 62 g/ha: 62 g ai/ha; for pest or weed control at 125 g/ha: 125 g ai/ha
Outline: as §1

[12] = system: barnyardgrass (Echinochloa crus-galli); assay: Test B flooded paddy test; conditions: Echinochloa crus-galli, Flood, scale 0 to 100, read-out: Plant response rating, Barnyardgrass
Outline: (§2)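 Visual injury scoring (0 = no effect, 100 = complete control) versus controls made 13 to 15 days after treatment in the greenhouse. Test species were grown in flooded paddy to the 2-leaf stage: rice, barnyardgrass, umbrella sedge, duck salad.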

[13] = system: duck salad (Heteranthera limosa); assay: Test B flooded paddy test; conditions: Heteranthera limosa, Flood, scale 0 to 100, read-out: Plant response rating, Ducksalad
Outline: as §2

rice (Oryza sativa) = assay: Test B flooded paddy test; conditions: Oryza sativa, Flood, scale 0 to 100, read-out: Plant response rating, Rice
Outline: as §2

[14] = system: umbrella sedge (Cyperus difformis); assay: Test B flooded paddy test; conditions: Cyperus difformis, Flood, scale 0 to 100, read-out: Plant response rating, Sedge, Umbrella
Outline: as §2

[15] = post-emergence, Postemergence, scale 0 to 100 (0 no effect, 100 complete control), read-out: Crabgrass plant response rating
[16] = post-emergence, Postemergence, scale 0 to 100 (0 no effect, 100 complete control), read-out: Pigweed plant response rating
[17] = post-emergence, Postemergence, read-out: Barnyardgrass plant response rating
[18] = pre-emergence, Preemergence, read-out: Plant response rating, Barnyardgrass
[19] = post-emergence, Postemergence, scale 0 to 100 (0 no effect, 100 complete control), read-out: Morningglory plant response rating
[20] = post-emergence, Postemergence, read-out: Wheat plant response rating
[21] = pre-emergence, Preemergence, read-out: Plant response rating, Wheat
[22] = post-emergence, Postemergence, scale 0 to 100 (0 no effect, 100 complete control), read-out: Foxtail, Giant plant response rating
[23] = post-emergence, Postemergence, scale 0 to 100 (0 no effect, 100 complete control), read-out: Cocklebur plant response rating
[24] = post-emergence, Postemergence, scale 0 to 100 (0 no effect, 100 complete control), read-out: Lambsquarters plant response rating
[25] = post-emergence, Postemergence, scale 0 to 100 (0 no effect, 100 complete control), read-out: Surinam Grass plant response rating
[26] = post-emergence, Postemergence, scale 0 to 100 (0 no effect, 100 complete control), read-out: Velvetleaf plant response rating

Molecule `Nc1nc(C2CC2)nc(C(=O)OCc2ccccc2)c1Cl` [Compound 78, phenylmethyl 6-amino-5-chloro-2-cyclopropyl-4-pyrimidinecarboxylate] has a pest or weed control at 62 g/ha ([1]; 62 g ai/ha) of 20%, a pest or weed control at 125 g/ha ([1]; 125 g ai/ha) of 40% and a pest or weed control at 62 g/ha (wild oat (Avena fatua); 62 g ai/ha) of 50%. It also gave a pest or weed control at 125 g/ha (wild oat (Avena fatua); 125 g ai/ha) of 70%, a pest or weed control at 62 g/ha [2, 15] of 60% and a pest or weed control at 125 g/ha [2, 15] of 70%. It also gave a pest or weed control at 62 g/ha ([2]; pre-emergence, Preemergence, scale 0 to 100, 0 no effect, 100 complete control, read-out: Plant response rating, Crabgrass) of 80%, a pest or weed control at 125 g/ha ([2]; pre-emergence, Preemergence, scale 0 to 100 (0 no effect, 100 complete control), read-out: Plant response rating, Crabgrass) of 90% and a pest or weed control at 62 g/ha [3, 16] of 80%. It also gave a pest or weed control at 125 g/ha [3, 16] of 100%, a pest or weed control at 62 g/ha ([3]; pre-emergence, Preemergence, scale 0 to 100, 0 no effect, 100 complete control, read-out: Plant response rating, Pigweed) of 100% and a pest or weed control at 125 g/ha ([3]; pre-emergence, Preemergence, scale 0 to 100 (0 no effect, 100 complete control), read-out: Plant response rating, Pigweed) of 100%. For the same molecule, the pest or weed control at 62 g/ha [4, 17] was 80%, the pest or weed control at 125 g/ha [4, 17] was 90% and the pest or weed control at 62 g/ha [4, 18] was 60%. For the same molecule, the pest or weed control at 125 g/ha [4, 18] was 70%, the pest or weed control at 62 g/ha [5, 19] was 100% and the pest or weed control at 125 g/ha [5, 19] was 100%. The pest or weed control at 62 g/ha ([5]; pre-emergence, Preemergence, scale 0 to 100, 0 no effect, 100 complete control, read-out: Plant response rating, Morningglory) was 80%, the pest or weed control at 125 g/ha ([5]; pre-emergence, Preemergence, scale 0 to 100 (0 no effect, 100 complete control), read-out: Plant response rating, Morningglory) was 100% and the plant injury at 62 g/ha [6, 20] was 50%. For the same molecule, the plant injury at 125 g/ha [6, 20] was 70%, the plant injury at 62 g/ha [6, 21] was 30% and the plant injury at 125 g/ha [6, 21] was 70%. For the same molecule, the pest or weed control at 125 g/ha [7, 22] was 70%, the pest or weed control at 62 g/ha [7, 22] was 60% and the pest or weed control at 125 g/ha ([7]; pre-emergence, Preemergence, scale 0 to 100 (0 no effect, 100 complete control), read-out: Plant response rating, Foxtail, Giant) was 70%. The pest or weed control at 62 g/ha ([7]; pre-emergence, Preemergence, scale 0 to 100, 0 no effect, 100 complete control, read-out: Plant response rating, Foxtail, Giant) was 20%, the pest or weed control at 62 g/ha [8, 23] was 100% and the pest or weed control at 125 g/ha [8, 23] was 100%. It also gave a pest or weed control at 62 g/ha ([8]; pre-emergence, Preemergence, scale 0 to 100, 0 no effect, 100 complete control, read-out: Plant response rating, Cocklebur) of 80%, a pest or weed control at 125 g/ha ([8]; pre-emergence, Preemergence, scale 0 to 100 (0 no effect, 100 complete control), read-out: Plant response rating, Cocklebur) of 100% and a pest or weed control at 62 g/ha [9, 24] of 100%. The pest or weed control at 125 g/ha [9, 24] was 100%, the pest or weed control at 62 g/ha ([9]; pre-emergence, Preemergence, scale 0 to 100, 0 no effect, 100 complete control, read-out: Plant response rating, Lambsquarters) was 90% and the pest or weed control at 125 g/ha ([9]; pre-emergence, Preemergence, scale 0 to 100 (0 no effect, 100 complete control), read-out: Plant response rating, Lambsquarters) was 100%. For the same molecule, the pest or weed control at 125 g/ha [10, 25] was 80%, the pest or weed control at 62 g/ha [10, 25] was 60% and the pest or weed control at 125 g/ha ([10]; pre-emergence, Preemergence, scale 0 to 100 (0 no effect, 100 complete control), read-out: Plant response rating, Surinam Grass) was 90%. For the same molecule, the pest or weed control at 62 g/ha ([10]; pre-emergence, Preemergence, scale 0 to 100, 0 no effect, 100 complete control, read-out: Plant response rating, Surinam Grass) was 60%, the plant injury at 62 g/ha (corn (Zea mays); post-emergence, Postemergence, 62 g ai/ha, scale 0 to 100 (0 no effect, 100 complete control), read-out: Corn plant response rating) was 40% and the plant injury at 125 g/ha (corn (Zea mays); post-emergence, Postemergence, 125 g ai/ha, scale 0 to 100 (0 no effect, 100 complete control), read-out: Corn plant response rating) was 80%. It also gave a Corn plant response rating (crop injury, 0 = no effect, 100 = complete kill) at 62 g/ha (corn (Zea mays); pre-emergence, Preemergence, 62 g ai/ha, scale 0 to 100, 0 no effect, 100 complete control) of 30%, a Corn plant response rating (crop injury, 0 = no effect, 100 = complete kill) at 125 g/ha (corn (Zea mays); pre-emergence, Preemergence, 125 g ai/ha, scale 0 to 100 (0 no effect, 100 complete control)) of 70% and a pest or weed control at 62 g/ha [11, 26] of 70%. For the same molecule, the pest or weed control at 125 g/ha [11, 26] was 80%, the pest or weed control at 62 g/ha ([11]; pre-emergence, Preemergence, scale 0 to 100, 0 no effect, 100 complete control, read-out: Plant response rating, Velvetleaf) was 70% and the pest or weed control at 125 g/ha ([11]; pre-emergence, Preemergence, scale 0 to 100 (0 no effect, 100 complete control), read-out: Plant response rating, Velvetleaf) was 90%. It also gave a pest or weed control at 125 g/ha ([12]; 125 g ai/ha) of 0%, a pest or weed control at 500 g/ha ([12]; 500 g ai/ha) of 40% and a pest or weed control at 125 g/ha ([13]; 125 g ai/ha) of 20%. It also gave a pest or weed control at 500 g/ha ([13]; 500 g ai/ha) of 70%, a plant injury at 125 g/ha (rice (Oryza sativa); 125 g ai/ha) of 20% and a plant injury at 500 g/ha (rice (Oryza sativa); 500 g ai/ha) of 40%. It also gave a pest or weed control at 125 g/ha ([14]; 125 g ai/ha) of 10% and a pest or weed control at 500 g/ha ([14]; 500 g ai/ha) of 50%.
